# In patent US9402818B2, “Use of amides of mono- and dicarboxylic acids in the treatment of renal diseases” (priority 2010, dated 2016):
# Where “and” joins values, the source holds several entries; their conditions need not be identical. Equal entries are not always repeated.
# Columns and labels:
# [1] = tested on: renal damage after administration of Cisplatin to mice; test: Renal damage after administration of Cisplatin to mice (nephrotoxicity model); assay type: in vivo, male mice C57BL6/J; settings: for Body weight: Cisplatin mice (20 mg/Kg i.p.); for Concentration of creatinine in the serum / Kidney weight/body weight / Amount of albumin excreted with urine (18 hrs prior to sacrifice): Cisplatin mice
# From the text: Cisplatin, a known and widely used chemotherapy agent, notoriously produces a serious renal damage in 50% of the patients subjected to treatment. Experimentally an animal model is used in mice, in which Cisplatin induces serious nephrotoxicity with ensuing renal disease. The model applied is as follows: male mice C57BL6/J were kept under standard conditions of care. Nephrotoxicity was induced into 8-weeks old mice and with an average weight of about 23 g, by means of an intraperitoneal injection of Cisplatin dihydrochloride in saline solution (20 mg/Kg in one administration). The control animals were treated in the same conditions using the saline solution alone. The animals were sacrificed 72 hrs after treatment with Cisplatin.
# 6 treatments were administered orally, one each 12 hrs by means of a tube, using both micronized palmitoylethanolamide-PEAm (10.0 mg/Kg) suspended in a carrier and ultra-micronized palmitoylethanolamide-PEAum (10.0 mg/Kg) suspended in a carrier; the first treatment was carried out 12 hours prior to the administration of the Cisplatin. The results were compared with control animals treated with the carrier alone. A 0.5% carboxymethyl cellulose solution was used as the carrier.
# Diethanolamide of fumaric acid was administered in sterile aqueous saline solution by intraperitoneal injection (10.0 mg/Kg) with posology analogous to that of PEA; the results were compared with animals treated with sterile saline solution alone.
# Prior to sacrifice, the blood was collected from the saphenous vein using a micro syringe to measure, through conventional methods, the levels of creatinine of the serum.
# TGF-1β [2] = test: TGF-1β in renal cortex by ELISA, Cisplatin mice; assay type: in vivo, male mice C57BL6/J; settings: pg/mg of total proteins
# Method: (§1) The level of TGF-1β on the renal tissue was measured through the following method: small pieces of the renal cortex, carefully separated and weighed, were homogenised in Tris-HCl 10 mM buffer at a 7.4 pH containing 2M of NaCl, 1 mM PMSF (phenylmethylsulfonyl fluoride, as a protease inhibitor), 1 mM EDTA and 0.01% of Tween 80. The samples were centrifuged at 19,000 rpm for 30 minutes and the supernatant was collected, measured and preserved at −80° C. The amount of the TGF-1β was measured using the ELISA commercial kit (Quantikine Kit™, Res & Diagn Systems, Minneapolis, USA) and the value expressed in pg/mg of total proteins. The concentration of total proteins was measured using the Bio-Rad commercial test (Hercules, Calif., USA).
# [3] = tested on: renal damage after administration of streptozotocin to mice; test: Renal damage after administration of streptozotocin to mice (diabetic nephropathy model); assay type: in vivo, male mice C57BL6/J
# From the text: The model of streptozootocin in mice represents a classic and known model of hyperglycemia capable of inducing a progressive renal damage into the animal leading to the renal disease with clear alterations of the characteristic parameters.
# The model applied is as follows: male mice C57BL6/J were kept under standard conditions of care. Diabetes was induced into 8-weeks old mice and with an average weight of about 22 g by means of an intraperitoneal injection of streptozotocin in citrate buffer (55 mg/Kg of weight/day) for 5 consecutive days. The control animals were treated in the same conditions using the citrate buffer alone.
# Treatments were administered orally, by means of a tube, using both micronized Palmitoylethanolamide- PEAm (10.0 mg/Kg) suspended in a carrier and ultra-micronized palmitoylethanolamide PEAum (10.0 mg/Kg) suspended in a carrier; the results were compared with control animals treated with the carrier alone. A 0.5% carboxymethyl cellulose was used as a carrier.
# Diethanolamide of fumaric acid was administered in sterile aqueous saline solution by intraperitoneal injection (10.0 mg/Kg); the results were compared with the animals treated with sterile saline solution alone.
# Administration of the carrier and of the two different suspensions containing palmitoylethanolamide or of the injection solution containing diethanolamide of fumaric acid, were performed once per day starting from the day of the last administration of Streptozotocin. Prior to sacrifice, the blood was collected from the saphenous vein using a micro syringe to determining, through conventional methods, the levels of glycemia, glycated haemoglobin and creatinine of the serum.
# TGF-1β [4] = test: TGF-1β in renal cortex by ELISA, streptozotocin mice; assay type: in vivo, male mice C57BL6/J; settings: pg/mg of total proteins, diabetic mice
# Method: as §1, with “The evaluation of TGF-1β” for “The level of TGF-1β”, “tissue was administered through the” for “tissue was measured through the”, “buffer at 7.4 pH” for “buffer at a 7.4 pH”, “protease inhibitor), 1mM EDTA and” for “protease inhibitor), 1 mM EDTA and”, “C. The evaluation of the” for “C. The amount of the”, “TGF-1β was made using the” for “TGF-1β was measured using the”
# Solubility in water = assay type: physicochemical
# [5] = tested on: renal function of nephropathic patients; test: Effect of ultra-micronized palmitoylethanolamide in nephropathic patients; assay type: in vivo, human; settings: 600 mg tablets, 2 per day, 60 days; for GFR Glomerulal Filtration Rate (Creatinine Clearance) T 60: Cockcroft-Gault; for Glycemia under fasting T 60: single patients Paz-04, -05, -06, diabetic nephropathy, compensated with insulin, T 0 values 210, 240, 280 mg/dl
# Method: Palmitoylethanolamide was administered to patients in form of tablets each containing 600 mg of active ingredient in ultra-micronized form; 2 tablets per day (one every 12 hours, after meals) were administered to patients for 60 consecutive days).
# Determination of the GRF (Glomerular Filtration Rate) by the creatinine endogenous marker was carried out according to the […] criteria (K/DOQI clinical practice guidelines for chronic kidney disease, 2002), using the Cockcroft-Gault equation (Cockcroft D. W. et al, 1976).
# [6] = 10.0 mg/Kg orally every 12 hrs x6, sacrifice 72 hrs, carrier alone 23.10 ± 1.22, control 26.12 ± 1.11
# [7] = 10.0 mg/Kg orally every 12 hrs x6, carrier alone 1.26 ± 0.05, control 0.22 ± 0.01, 10 mg/kg
# [8] = 10.0 mg/Kg orally every 12 hrs x6, carrier alone 7.22 ± 0.80, control 6.44 ± 0.03, 10 mg/kg
# [9] = 10.0 mg/Kg orally every 12 hrs x6, carrier alone 363.75, control 37.4, 10 mg/kg
# [10] = 10.0 mg/Kg orally every 12 hrs x6, carrier alone 25.3 ± 6.0, control 8.2 ± 0.7, 10 mg/kg
# [11] = 10.0 mg/Kg orally once per day in 0.5% carboxymethyl cellulose, carrier alone 25.12 ± 1.10, non-diabetic 27.82 ± 1.18, 10 mg/kg
# [12] = 10.0 mg/Kg orally once per day, carrier alone 1.11 ± 0.02, non-diabetic 0.21 ± 0.01, 10 mg/kg
# [13] = 10.0 mg/Kg orally once per day, carrier alone 8.65 ± 0.85, non-diabetic 6.65 ± 0.04, 10 mg/kg
# [14] = 10.0 mg/Kg orally once per day, carrier alone 12.80 ± 0.44, non-diabetic 4.89 ± 0.05, 10 mg/kg
# [15] = 10.0 mg/Kg orally once per day, carrier alone 340.5, non-diabetic 33.7, 10 mg/kg
# [16] = 10.0 mg/Kg orally once per day, carrier alone 408.45 ± 33.12, non-diabetic 122.2 ± 5.62, 10 mg/kg
# [17] = 10.0 mg/Kg orally once per day, carrier alone 24.2 ± 5.8, non-diabetic 7.5 ± 0.8, 10 mg/kg
smiles,measurement,setting,value
"CCCCCCCCCCCCCCCC(=O)NCCO [PEAm, Palmitoylethanolamide]",Body weight,[1]; [6],23.58 ± 1.13 g
same,Concentration of creatinine in the serum,[1]; [7],0.92 ± 0.03 mg/dL
same,Kidney weight/body weight,[1]; [8],7.85 ± 0.34
same,Amount of albumin excreted with urine (18 hrs prior to sacrifice),[1]; [9],270.90
same,TGF-1β level in renal cortex (pg/mg total protein),TGF-1β [2]; [10],15.8 ± 3.5 pg/mg
same,Body weight,[3]; [11],26.52 ± 1.08 g
same,Concentration of creatinine in the serum,[3]; [12],0.81 ± 0.01 mg/dL
same,Kidney weight/body weight,[3]; [13],7.85 ± 0.44
same,Glycated haemoglobin %,[3]; [14],11.32 ± 0.38%
same,Amount of albumin excreted with urine (18 hrs prior to sacrifice),[3]; [15],289.4
same,Glycemia,[3]; [16],386.12 ± 36.76 mg/dL
same,Level of TGF-1β,TGF-1β [4]; [17],15.0 ± 3.0 pg/mg
"O=C(/C=C/C(=O)NCCO)NCCO [diethanolamide of fumaric acid, Diethanolamide of fumaric acid]",Body weight,"[1]; 10.0 mg/Kg i.p. in saline solution, posology as PEA, saline alone 24.22 ± 1.45, control 26.12 ± 1.11",24.15 ± 1.12 g
same,Concentration of creatinine in the serum,"[1]; 10.0 mg/Kg i.p., saline alone 1.36 ± 0.02, control 0.22 ± 0.01",0.83 ± 0.06 mg/dL
same,Kidney weight/body weight,"[1]; 10.0 mg/Kg i.p., saline alone 8.15 ± 0.46, control 6.44 ± 0.03",6.58 ± 0.26
same,Amount of albumin excreted with urine (18 hrs prior to sacrifice),"[1]; 10.0 mg/Kg i.p., saline alone 351.57, control 37.4",181.4
same,Solubility in water,Solubility in water,high solubility
same,TGF-1β level in renal cortex (pg/mg total protein),"TGF-1β [2]; 10.0 mg/Kg i.p., saline alone 22.1 ± 4.3, control 8.2 ± 0.7",9.1 ± 2.8 pg/mg
same,Body weight,"[3]; 10.0 mg/Kg i.p. once per day in saline solution, saline alone 24.43 ± 1.15, non-diabetic 27.82 ± 1.18",26.22 ± 1.02 g
same,Concentration of creatinine in the serum,"[3]; 10.0 mg/Kg i.p. once per day, saline alone 1.51 ± 0.08, non-diabetic 0.21 ± 0.01",0.51 ± 0.03 mg/dL
same,Kidney weight/body weight,"[3]; 10.0 mg/Kg i.p. once per day, saline alone 9.00 ± 0.56, non-diabetic 6.65 ± 0.04",7.02 ± 0.46
same,Glycated haemoglobin %,"[3]; 10.0 mg/Kg i.p. once per day, saline alone 13.41 ± 0.63, non-diabetic 4.89 ± 0.05",12.12 ± 0.26%
same,Amount of albumin excreted with urine (18 hrs prior to sacrifice),"[3]; 10.0 mg/Kg i.p. once per day, saline alone 315.05, non-diabetic 33.7",135.7
same,Glycemia,"[3]; 10.0 mg/Kg i.p. once per day, saline alone 406.32 ± 33.44, non-diabetic 122.2 ± 5.62",386.19 ± 33.98 mg/dL
same,Level of TGF-1β,"TGF-1β [4]; 10.0 mg/Kg i.p. once per day, saline alone 25.3 ± 4.6, non-diabetic 7.5 ± 0.8",11.7 ± 3.2 pg/mg
"CCCCCCCCCCCCCCCC(=O)NCCO [PEAum, Palmitoylethanolamide]",Body weight,[1]; [6],24.55 ± 1.09 g
same,Concentration of creatinine in the serum,[1]; [7],0.48 ± 0.02 mg/dL
same,Kidney weight/body weight,[1]; [8],6.89 ± 0.42
same,Amount of albumin excreted with urine (18 hrs prior to sacrifice),[1]; [9],175.9
same,GFR Glomerulal Filtration Rate (Creatinine Clearance) T 60,"[5]; single patients Paz-01, -02, -03, chronic inflammatory nephropathy, T 0 values 26.4, 21.4, 20.7",44.6 and 35.2 and 36.1
same,GFR Glomerulal Filtration Rate (Creatinine Clearance) T 60,"[5]; single patients Paz-04, -05, -06, diabetic nephropathy (diabetes type 2), T 0 values 18.9, 22.4, 21.8",41.4 and 35.6 and 39.8
same,Glycemia under fasting T 60,[5]; with 10 U ready insulin,230 mg/dL
same,Glycemia under fasting T 60,[5]; with 10 U ready plus 20 U retard insulin,210 mg/dL
same,Glycemia under fasting T 60,[5]; with 12 U retard insulin,110 mg/dL
same,TGF-1β level in renal cortex (pg/mg total protein),TGF-1β [2]; [10],9.4 ± 3.2 pg/mg
same,Body weight,[3]; [11],26.12 ± 1.21 g
same,Concentration of creatinine in the serum,[3]; [12],0.44 ± 0.01 mg/dL
same,Kidney weight/body weight,[3]; [13],7.15 ± 0.38
same,Glycated haemoglobin %,[3]; [14],11.01 ± 0.18%
same,Amount of albumin excreted with urine (18 hrs prior to sacrifice),[3]; [15],151.5
same,Glycemia,[3]; [16],380.34 ± 34.16 mg/dL
same,Level of TGF-1β,TGF-1β [4]; [17],10.3 ± 2.5 pg/mg
